Experimental data: patent publication US20100251435A1, “METHOD FOR GROWING SUGARCANE” (priority 2007, published 2010)

Legend:
Assay type in all cases: in vivo
[1] = test system: sugar cane Variety RB 86-7515; assay: Greenhouse pot test, effect of formulated clothianidin on vigour; details: carretels; result in words
Protocol: Greenhouse test with sugarcane buds growing in pots were conducted to study the effect of clothianidin equivalent to an application rate of 200 g ai. ha^−1 on “vigour”, evaluating tillers, plant height, leaf width and culm diameter. This trial was conducted on sugar cane Variety RB 86-7515.
1) carretel with one bud treated with clothianidin (200 g ai. ha^−1) 2) carretel with one bud treated with clothianidin (200 g ai. ha^−1)+15% v/v of polymer 3) stalk with 3 buds untreated 4) carretel with one bud untreated+15% v/v of polymer 5) carretel with one bud untreated 6) stalk with 3 buds treated with clothianidin (200 g ai. ha^−1).
Twenty 1 L pots were filled with 16 L of clay soil, 1.6 L of sand and 8 g of nitrogen, 28 g of phosphorus (P2O5) and 16 g of potassium (K2O). Six carretels of 4 cm length with one bud were planted in each pot (treatments 1, 2, 4 and 5). Two stalks with three buds were planted in each control pot (treatments 3 and 6) to simulate conventional planting. A layer of 3 cm of soil was used to cover the carretels. The carretels of treatments 1 and 2 were treated with 200 g ai.ha^−1 of clothianidin, by dipping the carretels in a slurry for 3 min. The stalks were treated simulating a furrow application at 100 L.ha^−1 of slurry. The pots were maintained with adequate moisture during the test. […]

[2] = test system: sugar cane Variety RB 86-7515; assay: Greenhouse pot test, effect of formulated fipronil on vigour; details: result in words
Protocol: Greenhouse test with sugarcane buds growing in pots were conducted to study the effect of fipronil equivalent to an application rate of 200 g. ha^−1 on “vigour”, evaluating tillers, plant height, leaf width and culm diameter on sugar cane Variety RB 86-7515.
Twenty 1 L pots were filled with 16 L of clay soil, 1.6 L of sand and 8 g of nitrogen, 28 g of phosphorus (P2O5) and 16 g of potassium (K2O). Six carretels of 4 cm length with one bud were planted in each pot (treatments 1, 2, 4 and 5). Two stalks with three buds were planted in each control pot (treatments 3 and 6) to simulate conventional planting. A layer of 3 cm of soil was used to cover the carretels. The carretels of treatments 1 and 2 were treated with 200 g ai.ha^−1 of fipronil, by dipping the carretels in the slurry for 3 min, based on the uptake capacity of carretels. The stalks were treated simulating a furrow application at 100 L.ha^−1 of slurry. Experimental design adopted was randomized complete block with four replications. The pots were maintained with adequate moisture during the test. Evaluations of: plant height, leaf width, culm diameter and number of tillers were done at 20, 30 and 42 days after planting.

[3] = test system: sugar cane Variety RB 86 7515; assay: Greenhouse pot test, effect of formulated imidacloprid on vigour; details: result in words
Description: 1) carretel with one bud treated with Imidacloprid (1200 g. ha^−1) 2) carretel with one bud treated with Imidacloprid (1200 g. ha^−1)+15% v/v of polymer 3) stalk with 3 buds untreated 4) carretel with one bud untreated 5) carretel with one bud untreated+15% v/v of polymer 6) stalk with 3 buds treated with Imidacloprid (1200 g. ha^−1).
Twenty 1 L pots were filled with 16 L of clay soil, 1.6 L of sand and 8 g of nitrogen, 28 g of phosphorus (P2O5) and 16 g of potassium (K2O). Six carretels of 4 cm length with one bud were planted in each pot (treatments 1, 2, 4 and 5). Two stalks with three buds were planted in each control pot (treatments 3 and 6) to simulate conventional planting. A layer of 3 cm of soil was used to cover the carretels. The carretels of treatments 1 and 2 were treated with 1200 g ai.ha^−1 of imidacloprid, by dipping the carretels in the slurry for 3 min, based on the uptake capacity of carretels. The stalks were treated simulating a furrow application at 100 L.ha^−1 of slurry. Experimental design adopted was randomized complete block with four replications. The pots were maintained with adequate moisture during the test. Evaluations of: plant height, leaf width, culm diameter and number of tillers were done at 20, 30 and 42 days after planting.

[4] = test system: sugar cane Variety RB 86-7515; assay: Greenhouse pot test, effect of formulated thiamethoxam on vigour; details: result in words
Protocol: This trial was conducted on Variety RB 86-7515.

[5] = test system: sugar cane Variety RB 86-7515; assay: Greenhouse pot test, effect of formulated abamectin on vigour
Protocol: Greenhouse test with sugarcane buds growing in pots were conducted to study the effect of formulated abamectin regarding “vigour”, tillers, plant height, leaf width and culm diameter on sugar cane Variety RB 86-7515.
1) carretel with one bud treated with abamectin 2) carretel with one bud treated with abamectin+15% v/v of polymer 3) stalk with 3 buds untreated 4) carretel with one bud untreated 5) carretel with one bud untreated+15% v/v of polymer 6) stalk with 3 buds treated with abamectin.
Twenty 1 L pots were filled with 16 L of clay soil, 1.6 L of sand and 8 g of nitrogen, 28 g of phosphorus (P2O5) and 16 g of potassium (K2O). Six carretels of 4 cm length with only one bud were planted in each pot (treatments 1, 2, 4 and 5). Two stalks with three buds were planted in each control pot (treatments 3 and 6) to simulate conventional planting. A layer of 3 cm of soil was used to cover the carretels. The carretels of treatments 1, 2 were treated with 200 ml/ha of abamectin, by dipping the carretels in the slurry for 3 min, based on the uptake capacity of carretels. The stalks were treated simulating a furrow application at 100 L.ha^−1 of slurry. Experimental design adopted was randomized complete block with four replications. The pots were maintained with adequate moisture during the test. Evaluations of: plant height, leaf width, culm diameter and number of tillers were done at 20, 30 and 42 days after planting.

CN/C(=N\[N+](=O)[O-])NCc1cnc(Cl)s1 [Clothianidin, clothianidin]
number of tillers in comparison with the corresponding control experiment (untreated, one-bud) [1]: increased
plant height in comparison with the corresponding control experiment (untreated, one-bud) [1]: slight reduction

N#Cc1nn(-c2c(Cl)cc(C(F)(F)F)cc2Cl)c(N)c1[S+]([O-])C(F)(F)F (stereo not drawn) [Fipronil, fipronil]
height of the resultant plants in comparison with the control [2]: decreased
number of tillers in comparison with the control [2]: increased

O=[N+]([O-])NC1=NCCN1Cc1ccc(Cl)nc1 [Imidacloprid, imidacloprid]
number of tillers in comparison with the control [3]: increase
size of the effect compared with the other active ingredients [3]: less pronounced than with the other active ingredients

CN1COCN(Cc2cnc(Cl)s2)/C1=N\[N+](=O)[O-] [Thiamethoxam, thiamethoxam]
number of tillers in comparison with the corresponding controls ([4]; carretels): increased
plant height in comparison with the corresponding controls ([4]; carretels): reduced
overall "quality" compared with the other treatments ([4]; practical assessment, not apparent from the listed parameters): increase in “quality” greater than the other treatments

abamectin
Tillers ([5]; Carretel with one bud, 100 g ai/ha, dipped in slurry 3 min, 42 days after planting): 14 number
number of tillers in comparison with the control ([5]; result in words): increase
plant height in comparison with the control ([5]; result in words): decrease
